Experiments:
[1] = system: IL-1β release upon NLRP3 activation in human whole blood; experiment: Whole blood (WB) assay (IL-1β release, LPS priming + ATP stimulation, HTRF); assay type: cell-based; conditions: heparin, diluted 9:5 with media, LPS 1 μg/ml 3 h, compound 30 min, ATP 5 mM 1 h, IL-1β by HTRF
In short: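 Heparinised human whole blood, diluted 9:5 in medium, was primed with LPS (1 μg/ml final) for 3 h. Compound was then added for 30 min, followed by ATP (5 mM final) for 1 h. Secreted IL-1β was measured in the media by HTRF (655/620 nm).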

[2] = system: IL-1β release upon NLRP3 activation in peripheral blood mononuclear cells (PBMC); experiment: PBMC IC50 determination assay (IL-1β release, LPS priming + ATP stimulation, HTRF); assay type: cell-based; conditions: PBMC from buffy coats; LPS 1 μg/ml 3 h, compound 30 min, ATP 5 mM 1 h; IL-1β by HTRF
In short: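 Buffy-coat PBMC were primed with LPS (1 μg/ml) for 3 h, given compound for 30 min, then stimulated with 5 mM ATP for 1 h. IL-1β released into the medium was quantified by HTRF, reading 655 and 620 nm.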

Cc1cc(NC(=O)NS(=O)(=O)N(c2cnn(C)c2F)C2CCN(C)CC2)c(C(C)C)s1 [Compound 101, 1-[(5-Fluoro-1-methyl-1H-pyrazol-4-yl)(1-methylpiperidin-4-yl)sulfamoyl]-3-[5-methyl-2-(propan-2-yl)thiophen-3-yl]urea]
IC50 [1]: < 1 µM
IC50 [2]: < 0.1 µM

COc1sc2c(c1NC(=O)NS(=O)(=O)N(c1cnn(C)c1)C1CCCN(C)C1)CCC2 (stereo not drawn) [Compound 102, 3-{2-Methoxy-4H,5H,6H-cyclopenta[b]thiophen-3-yl}-1-[(1-methyl-1H-pyrazol-4-yl)(1-methylpiperidin-3-yl)sulfamoyl]urea]
IC50 [1]: 1 to 3 µM
IC50 [2]: 0.1 to 0.5 µM

Cc1cc(NC(=O)NS(=O)(=O)N(c2cnn(C3CC3)c2)[C@H]2CCCN(C)C2)c(C(C)C)s1 [Compound 103, 1-[(1-Cyclopropyl-1H-pyrazol-4-yl)[(3S)-1-methylpiperidin-3-yl]sulfamoyl]-3-[5-methyl-2-(propan-2-yl)thiophen-3-yl]urea]
IC50 [1]: < 1 µM
IC50 [2]: < 0.1 µM

Cc1cc(NC(=O)NS(=O)(=O)N(c2cnn(C3CC3)c2)[C@@H]2CCCN(C)C2)c(C(C)C)s1 [Compound 104, 1-[(1-Cyclopropyl-1H-pyrazol-4-yl)[(3R)-1-methylpiperidin-3-yl]sulfamoyl]-3-[5-methyl-2-(propan-2-yl)thiophen-3-yl]urea]
IC50 [1]: < 1 µM
IC50 [2]: < 0.1 µM

Cc1cc(NC(=O)NS(=O)(=O)N(c2cnn(C3CC3)c2)[C@@H]2CCCN(C)C2)c(C2CC2)s1 [Compound 106, 1-[(1-Cyclopropyl-1H-pyrazol-4-yl)[(3R)-1-methylpiperidin-3-yl]sulfamoyl]-3-(2-cyclopropyl-5-methylthiophen-3-yl)urea]
IC50 [1]: 1 to 3 µM
IC50 [2]: 0.1 to 0.5 µM

Cc1cc(NC(=O)NS(=O)(=O)N(c2cnn(C)c2)[C@H]2CCCN(C)C2)c(C2CC2)s1 [Compound 107, 3-(2-Cyclopropyl-5-methylthiophen-3-yl)-1-[(1-methyl-1H-pyrazol-4-yl)[(3S)-1-methylpiperidin-3-yl]sulfamoyl]urea]
IC50 [1]: 1 to 3 µM
IC50 [2]: 0.1 to 0.5 µM

Cc1cc(NC(=O)NS(=O)(=O)N(c2cnn(C)c2)[C@@H]2CCCN(C)C2)c(C2CC2)s1 [Compound 108, 3-(2-Cyclopropyl-5-methylthiophen-3-yl)-1-[(1-methyl-1H-pyrazol-4-yl)[(3R)-1-methylpiperidin-3-yl]sulfamoyl]urea]
IC50 [1]: 1 to 3 µM
IC50 [2]: < 0.1 µM

Cc1sc2c(c1NC(=O)NS(=O)(=O)N(c1cnn(C)c1)C1CCN(C)CC1)CCC2 [Compound 109, 1-[(1-Methyl-1H-pyrazol-4-yl)(1-methylpiperidin-4-yl)sulfamoyl]-3-{2-methyl-4H,5H,6H-cyclopenta[b]thiophen-3-yl}urea]
IC50 [1]: 1 to 3 µM
IC50 [2]: 0.1 to 0.5 µM

Cc1sc2c(c1NC(=O)NS(=O)(=O)N(c1cnn(C)c1)[C@H]1C[C@H](F)CN(C)C1)CCC2 [Compound 110, 1-{[(3S,5S)-5-Fluoro-1-methylpiperidin-3-yl](1-methyl-1H-pyrazol-4-yl)sulfamoyl}-3-{2-methyl-4H,5H,6H-cyclopenta[b]thiophen-3-yl}urea]
IC50 [1]: 1 to 3 µM
IC50 [2]: 0.1 to 0.5 µM

Cc1cc(NC(=O)NS(=O)(=O)N(c2cnn(C)c2)[C@H]2C[C@H](F)CN(C)C2)c(C(C)C)s1 [Compound 111, 1-{[(3S,5S)-5-Fluoro-1-methylpiperidin-3-yl](1-methyl-1H-pyrazol-4-yl)sulfamoyl}-3-[5-methyl-2-(propan-2-yl)thiophen-3-yl]urea]
IC50 [1]: 1 to 3 µM
IC50 [2]: 0.1 to 0.5 µM

Cc1cc(NC(=O)NS(=O)(=O)N(c2cnn(C3CC3)c2)C2CCCN(C)C2)c(C(C)C)s1 (stereo not drawn) [Compound 112, 1-[(1-Cyclopropyl-1H-pyrazol-4-yl)(1-methylpiperidin-3-yl)sulfamoyl]-3-[5-methyl-2-(propan-2-yl)thiophen-3-yl]urea]
IC50 [1]: < 1 µM
IC50 [2]: < 0.1 µM

Cc1sc2c(c1NC(=O)NS(=O)(=O)N(c1cnn(C3CC3)c1F)C1CCCN(C)C1)CCC2 (stereo not drawn) [Compound 113, 1-[(1-Cyclopropyl-5-fluoro-1H-pyrazol-4-yl)(1-methylpiperidin-3-yl)sulfamoyl]-3-{2-methyl-4H,5H,6H-cyclopenta[b]thiophen-3-yl}urea]
IC50 [1]: < 1 µM
IC50 [2]: < 0.1 µM

Cc1cc(NC(=O)NS(=O)(=O)N(c2cnn(C3CC3)c2F)C2CCCN(C)C2)c(C(C)C)s1 (stereo not drawn) [Compound 114, 1-[(1-Cyclopropyl-5-fluoro-1H-pyrazol-4-yl)(1-methylpiperidin-3-yl)sulfamoyl]-3-[5-methyl-2-(propan-2-yl)thiophen-3-yl]urea]
IC50 [1]: < 1 µM
IC50 [2]: < 0.1 µM

Cc1cc(NC(=O)NS(=O)(=O)N(c2cnn(C)c2F)C2CCCN(C)C2)c(C(C)C)s1 (stereo not drawn) [Compound 115, 1-[(5-Fluoro-1-methyl-1H-pyrazol-4-yl)(1-methylpiperidin-3-yl)sulfamoyl]-3-[5-methyl-2-(propan-2-yl)thiophen-3-yl]urea]
IC50 [1]: < 1 µM
IC50 [2]: < 0.1 µM

Cc1sc2c(c1NC(=O)NS(=O)(=O)N(c1cnn(C)c1)[C@H]1CCCN(C)C1)CCC2 [Compound 116, 1-[(1-Methyl-1H-pyrazol-4-yl)[(3S)-1-methylpiperidin-3-yl]sulfamoyl]-3-{2-methyl-4H,5H,6H-cyclopenta[b]thiophen-3-yl}urea]
IC50 [1]: < 1 µM
IC50 [2]: < 0.1 µM

Cc1sc(C(F)(F)F)cc1NC(=O)NS(=O)(=O)N(c1cnn(C)c1)C1CCCN(C)C1 (stereo not drawn) [Compound 117, 1-[(1-Methyl-1H-pyrazol-4-yl)(1-methylpiperidin-3-yl)sulfamoyl]-3-[2-methyl-5-(trifluoromethyl)thiophen-3-yl]urea]
IC50 [1]: < 1 µM
IC50 [2]: 0.1 to 0.5 µM

Cc1sc2c(c1NC(=O)NS(=O)(=O)N(c1cnn(C3CC3)c1)C1CCCN(C)C1)CCC2 (stereo not drawn) [Compound 118, 1-[(1-Cyclopropyl-1H-pyrazol-4-yl)(1-methylpiperidin-3-yl)sulfamoyl]-3-{2-methyl-4H,5H,6H-cyclopenta[b]thiophen-3-yl}urea]
IC50 [1]: < 1 µM
IC50 [2]: < 0.1 µM

Cc1sc2c(c1NC(=O)NS(=O)(=O)N(c1cnn(C)c1F)C1CCCN(C)C1)CCC2 (stereo not drawn) [Compound 119, 1-[(5-Fluoro-1-methyl-1H-pyrazol-4-yl)(1-methylpiperidin-3-yl)sulfamoyl]-3-{2-methyl-4H,5H,6H-cyclopenta[b]thiophen-3-yl}urea]
IC50 [1]: < 1 µM
IC50 [2]: < 0.1 µM

Cc1sc2c(c1NC(=O)NS(=O)(=O)N(c1cnn(C)c1F)C1CCN(C)CC1)CCC2 [Compound 120, 1-[(5-Fluoro-1-methyl-1H-pyrazol-4-yl)(1-methylpiperidin-4-yl)sulfamoyl]-3-{2-methyl-4H,5H,6H-cyclopenta[b]thiophen-3-yl}urea]
IC50 [1]: 1 to 3 µM
IC50 [2]: < 0.1 µM

CC(C)c1cc(NC(=O)NS(=O)(=O)N(c2cnn(C)c2)C2CCCN(C)C2)c(C(F)(F)F)s1 (stereo not drawn) [Compound 121, 1-[(1-Methyl-1H-pyrazol-4-yl)(1-methylpiperidin-3-yl)sulfamoyl]-3-[5-(propan-2-yl)-2-(trifluoromethyl)thiophen-3-yl]urea]
IC50 [1]: 3 to 10 µM
IC50 [2]: 0.1 to 0.5 µM

CN1CCCC(N(c2cnn(C)c2)S(=O)(=O)NC(=O)Nc2c(C(C)(C)C)sc3c2CCC3)C1 (stereo not drawn) [Compound 122, 3-{2-Tert-butyl-4H,5H,6H-cyclopenta[b]thiophen-3-yl}-1-[(1-methyl-1H-pyrazol-4-yl)(1-methylpiperidin-3-yl)sulfamoyl]urea]
IC50 [1]: 10 to 20 µM
IC50 [2]: 0.5 to 1 µM

Source: patent US12624023B2, “Sulfonylurea derivatives and uses thereof” (NodThera Limited, priority 2019, dated 2026)
